Test results published in ChEMBL document CHEMBL1201862, “PubChem BioAssay data set” (2004).
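Interpolation was linear, between the two tested concentrations surrounding the appropriate level; five concentrations were tested over 48 hours in 96-well plates. GI50: concentration for 50% inhibition of growth.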 Activity calls are given as the source filed them. Rule as the data show it: active = GI50 up to about 1.1 µM and inactive = higher.

Legend:
Assay in all cases: NCI tumour cell line growth inhibition, 48 h
K562 = tested on: K562
786-0 = tested on: 786-0
HOP-62 = tested on: HOP-62
SNB-75 = tested on: SNB-75
A549 = tested on: A549
RXF 393 = tested on: RXF 393
SN12C = tested on: SN12C
SR = tested on: SR
MDA-N = tested on: MDA-N
SF-539 = tested on: SF-539
HOP-92 = tested on: HOP-92
CAKI-1 = tested on: CAKI-1
SW-620 = tested on: SW-620
UACC-62 = tested on: UACC-62
BT-549 = tested on: BT-549
COLO 205 = tested on: COLO 205
SK-OV-3 = tested on: SK-OV-3
SK-MEL-2 = tested on: SK-MEL-2
UO-31 = tested on: UO-31

| SMILES | GI50 (K562) | GI50 (786-0) | GI50 (HOP-62) | GI50 (SNB-75) | GI50 (A549) | GI50 (RXF 393) | GI50 (SN12C) | GI50 (SR) | GI50 (MDA-N) | GI50 (SF-539) | GI50 (HOP-92) | GI50 (CAKI-1) | GI50 (SW-620) | GI50 (UACC-62) | GI50 (BT-549) | GI50 (COLO 205) | GI50 (SK-OV-3) | GI50 (SK-MEL-2) | GI50 (UO-31) |
| --- | --- | --- | --- | --- | --- | --- | --- | --- | --- | --- | --- | --- | --- | --- | --- | --- | --- | --- | --- |
| CCN(CC)c1ccc2cc(C(N)=O)c(=N)oc2c1 | > 100 µM (inactive) | 30.1 µM (inactive) | 38.6 µM (inactive) | 26.5 µM (inactive) | 37.4 µM (inactive) | 55 µM (inactive) | 31.3 µM (inactive) | 14.6 µM (inactive) | 38.2 µM (inactive) | 4.15 µM (inactive) | 24 µM (inactive) | 35.4 µM (inactive) | 47.4 µM (inactive) | 30.8 µM (inactive) | 52.5 µM (inactive) | 35.2 µM (inactive) | 36.6 µM (inactive) | 21.3 µM (inactive) | – |
| O=C1C(F)=CC(COC(c2ccccc2)(c2ccccc2)c2ccccc2)OC1n1cc(F)c(=O)[nH]c1=O (stereo not given) | 0.278 µM (active) | 1.97 µM (inactive) | 3.18 µM (inactive) | 2.58 µM (inactive) | 2.18 µM (inactive) | 1.96 µM (inactive) | 1.75 µM (inactive) | 6.18 µM (inactive) | 1.11 µM (active) | 1.94 µM (inactive) | 2.11 µM (inactive) | 2.49 µM (inactive) | 0.723 µM (active) | 1.61 µM (inactive) | 1.71 µM (inactive) | – | 7.05 µM (inactive) | 2.91 µM (inactive) | 2.2 µM (inactive) |
| COc1ccccc1NCc1nnc(CCCCCCCCc2nnc(CNc3ccccc3OC)o2)o1 | > 100 µM (inactive) | > 100 µM (inactive) | > 100 µM (inactive) | > 100 µM (inactive) | > 100 µM (inactive) | > 100 µM (inactive) | > 100 µM (inactive) | > 100 µM (inactive) | > 100 µM (inactive) | – | > 100 µM (inactive) | > 100 µM (inactive) | – | > 100 µM (inactive) | > 100 µM (inactive) | > 100 µM (inactive) | > 100 µM (inactive) | > 100 µM (inactive) | > 100 µM (inactive) |
| COC(=O)CCC(=O)NC1=C(Nc2ccccc2)C(=O)c2ccccc2C1=O | 14.8 µM (inactive) | 12.3 µM (inactive) | 17.8 µM (inactive) | 18.3 µM (inactive) | 18.8 µM (inactive) | 8.81 µM (inactive) | 13.6 µM (inactive) | 11.4 µM (inactive) | 2.04 µM (inactive) | 13 µM (inactive) | 15 µM (inactive) | 14.4 µM (inactive) | 11.4 µM (inactive) | 3.67 µM (inactive) | 10.6 µM (inactive) | 16.7 µM (inactive) | 12.9 µM (inactive) | 5.57 µM (inactive) | 17.9 µM (inactive) |
| Cc1ccc(-n2cc(-c3ccc(Cl)cc3)c(C#N)c2N)cc1 | 16.6 µM (inactive) | 15.3 µM (inactive) | 17.9 µM (inactive) | 20.3 µM (inactive) | 17.4 µM (inactive) | 10.5 µM (inactive) | 14.8 µM (inactive) | 6.67 µM (inactive) | 18.5 µM (inactive) | 16.6 µM (inactive) | 17 µM (inactive) | 21.2 µM (inactive) | 13.2 µM (inactive) | 15.1 µM (inactive) | 18.2 µM (inactive) | 14.1 µM (inactive) | 20.7 µM (inactive) | 15.2 µM (inactive) | 13.2 µM (inactive) |
| N#Cc1c(Cl)cc(C#N)n2c1nc1ccccc12 | 3.03 µM (inactive) | 2.59 µM (inactive) | 21.6 µM (inactive) | 19.2 µM (inactive) | 15 µM (inactive) | 14.2 µM (inactive) | 19.4 µM (inactive) | 0.532 µM (active) | 10.6 µM (inactive) | 7.24 µM (inactive) | 8.04 µM (inactive) | 5.64 µM (inactive) | 3.47 µM (inactive) | 18.3 µM (inactive) | 6.12 µM (inactive) | 4.4 µM (inactive) | 21.9 µM (inactive) | 17 µM (inactive) | 7.85 µM (inactive) |
| CC(C)(C)C(=O)OCC1CCC[N+]2(C)CCCCC12 (stereo not given) | > 100 µM (inactive) | > 100 µM (inactive) | > 100 µM (inactive) | > 100 µM (inactive) | > 100 µM (inactive) | > 100 µM (inactive) | > 100 µM (inactive) | > 100 µM (inactive) | > 100 µM (inactive) | > 100 µM (inactive) | > 100 µM (inactive) | > 100 µM (inactive) | > 100 µM (inactive) | > 100 µM (inactive) | > 100 µM (inactive) | > 100 µM (inactive) | > 100 µM (inactive) | > 100 µM (inactive) | > 100 µM (inactive) |
| Cc1cc2c(cc1-c1cc3c(cc1C)C(C(C)C)=C(O)C(=O)/C3=C\NCC1CCCN3CCCCC13)/C(=C/NCC1CCCN3CCCCC13)C(=O)C(O)=C2C(C)C (stereo not given) | 12.2 µM (inactive) | 3.02 µM (inactive) | 4.27 µM (inactive) | 8.15 µM (inactive) | 4.93 µM (inactive) | 5.93 µM (inactive) | 4.82 µM (inactive) | 26.2 µM (inactive) | 5.78 µM (inactive) | 14.9 µM (inactive) | 15.8 µM (inactive) | 3.81 µM (inactive) | 5.48 µM (inactive) | 7.78 µM (inactive) | 15.9 µM (inactive) | 3.47 µM (inactive) | 4 µM (inactive) | 8.02 µM (inactive) | 3.43 µM (inactive) |
| COc1ccc(C(=O)Cn2c(C(=O)/C=C/c3ccco3)nc3ccccc32)cc1 | 22.2 µM (inactive) | 31 µM (inactive) | 46 µM (inactive) | 76.6 µM (inactive) | 42.8 µM (inactive) | 41.3 µM (inactive) | 39.1 µM (inactive) | 10 µM (inactive) | 26 µM (inactive) | 34 µM (inactive) | 51.4 µM (inactive) | – | 31.4 µM (inactive) | 27.4 µM (inactive) | 34.4 µM (inactive) | 21.7 µM (inactive) | 37.3 µM (inactive) | 17.5 µM (inactive) | 31.6 µM (inactive) |
| CC(=S)NC=C(C(N)=O)C(N)=O | > 100 µM (inactive) | > 100 µM (inactive) | > 100 µM (inactive) | > 100 µM (inactive) | > 100 µM (inactive) | > 100 µM (inactive) | > 100 µM (inactive) | > 100 µM (inactive) | > 100 µM (inactive) | > 100 µM (inactive) | 3.26 µM (inactive) | > 100 µM (inactive) | > 100 µM (inactive) | > 100 µM (inactive) | > 100 µM (inactive) | > 100 µM (inactive) | > 100 µM (inactive) | > 100 µM (inactive) | – |
| C=C1C(=O)C[C@H]2C(=C)C(=O)O[C@@H]2C2C1CC[C@@]2(C)O (stereo not given in full) | 16.3 µM (inactive) | 19.9 µM (inactive) | 31.3 µM (inactive) | > 100 µM (inactive) | 44.4 µM (inactive) | 15.4 µM (inactive) | 42.6 µM (inactive) | 27.1 µM (inactive) | 29.7 µM (inactive) | 26.8 µM (inactive) | 26.4 µM (inactive) | 16.7 µM (inactive) | 23 µM (inactive) | 14.9 µM (inactive) | 19.8 µM (inactive) | 14.5 µM (inactive) | > 100 µM (inactive) | 21.5 µM (inactive) | 23.2 µM (inactive) |
| COc1cc2c(c(O)c1O)C(=O)C1CCC(=O)N1C2c1cccc2ccccc12 (stereo not given) | > 50 µM (inactive) | > 50 µM (inactive) | > 50 µM (inactive) | > 50 µM (inactive) | 30.3 µM (inactive) | 6.28 µM (inactive) | > 50 µM (inactive) | > 50 µM (inactive) | > 50 µM (inactive) | > 50 µM (inactive) | > 50 µM (inactive) | – | > 50 µM (inactive) | 49.9 µM (inactive) | > 50 µM (inactive) | > 50 µM (inactive) | > 50 µM (inactive) | > 50 µM (inactive) | > 50 µM (inactive) |
| COC(=O)C1C(O)C(C)C(O)C(C)C=C(C)C2=C3C(=C(C)C(=O)c4c(O)c(c(C)c(OC(C)=O)c43)NC(=O)C(C)=C/C=C\C(C)C(O)C(C)C1O)OCO2 (stereo not given) | 18.6 µM (inactive) | 57.1 µM (inactive) | > 100 µM (inactive) | 12.4 µM (inactive) | 54 µM (inactive) | 24.9 µM (inactive) | 37.4 µM (inactive) | 19.7 µM (inactive) | 16.9 µM (inactive) | 37.8 µM (inactive) | 14.9 µM (inactive) | – | 23.9 µM (inactive) | 28 µM (inactive) | 19.6 µM (inactive) | 19.9 µM (inactive) | > 100 µM (inactive) | 23.7 µM (inactive) | 25.9 µM (inactive) |
| O=C(O)[C@@H]1NC[C@H]2C(Br)=NO[C@H]21 | – | > 100 µM (inactive) | > 100 µM (inactive) | > 100 µM (inactive) | > 100 µM (inactive) | > 100 µM (inactive) | > 100 µM (inactive) | 23.4 µM (inactive) | > 100 µM (inactive) | – | > 100 µM (inactive) | > 100 µM (inactive) | > 100 µM (inactive) | > 100 µM (inactive) | > 100 µM (inactive) | > 100 µM (inactive) | > 100 µM (inactive) | > 100 µM (inactive) | > 100 µM (inactive) |
| N#C[BH2-][n+]1cn(C2CC(OP(=O)(O)OCC3OC(n4cnc5c(N)ncnc54)CC3O)C(CO)O2)c2nc(N)[nH]c(=O)c21 (stereo not given) | > 100 µM (inactive) | > 100 µM (inactive) | > 100 µM (inactive) | > 100 µM (inactive) | > 100 µM (inactive) | > 100 µM (inactive) | > 100 µM (inactive) | > 100 µM (inactive) | > 100 µM (inactive) | > 100 µM (inactive) | > 100 µM (inactive) | > 100 µM (inactive) | > 100 µM (inactive) | > 100 µM (inactive) | > 100 µM (inactive) | > 100 µM (inactive) | > 100 µM (inactive) | > 100 µM (inactive) | > 100 µM (inactive) |
